Source: patent publication EP1263458B1, “LOWERING SERUM CHOLESTEROL” (NOVO NORDISK A/S, priority 2000, dated 2005)

Tested on: Wistar rats subjected to neonatal monosodium glutamate treatment (MSG)
Test: Acute and subchronic anorectic effects, plasma triglycerides, model of hypothalamic obesity (MSG rats)
Format: in vivo
Settings: 100 µg/kg s.c. twice daily, rat group not specified
Description: Solutions were always made fresh approximately 1 hour prior to use and stored at 4°C in sterile tubes.

[1] = normalised within few days of treatment

diuresis [1]: increases
water intake [1]: Initial decreases
plasma parameters of renal function (throughout the experiment): remained normal
SMILES: CCCCCCCCCCCCCCCC(=O)N[C@@H](CCC(=O)NCCCC[C@H](NC(=O)[C@H](C)NC(=O)[C@H](C)NC(=O)[C@H](CCC(N)=O)NC(=O)CNC(=O)[C@H](CCC(=O)O)NC(=O)[C@H](CC(C)C)NC(=O)[C@H](Cc1ccc(O)cc1)NC(=O)[C@H](CO)NC(=O)[C@H](CO)NC(=O)[C@@H](NC(=O)[C@H](CC(=O)O)NC(=O)[C@H](CO)NC(=O)[C@@H](NC(=O)[C@H](Cc1ccccc1)NC(=O)[C@@H](NC(=O)CNC(=O)[C@H](CCC(=O)O)NC(=O)[C@H](C)NC(=O)[C@@H](N)Cc1cnc[nH]1)[C@@H](C)O)[C@@H](C)O)C(C)C)C(=O)N[C@@H](CCC(=O)O)C(=O)N[C@@H](Cc1ccccc1)C(=O)N[C@H](C(=O)N[C@@H](C)C(=O)N[C@@H](Cc1c[nH]c2ccccc12)C(=O)N[C@@H](CC(C)C)C(=O)N[C@H](C(=O)N[C@@H](CCCNC(=N)N)C(=O)NCC(=O)N[C@@H](CCCNC(=N)N)C(=O)NCC(=O)O)C(C)C)[C@@H](C)CC)C(=O)O [GLP1, Arg^34, Lys^26(N^ε-(γ-Glu(N^α-hexadecanoyl)))-GLP-1(7-37)]
